From patent publication US4281121A, “1,3,4-Thiadiazole-2-carboxylic acid derivatives, process for making the same and fungicidal and nematocidal compositions containing same” (Schering Aktiengesellschaft, priority 1978, dated 1981)
Where two headings read alike, the source gives them in different places.

Key:
Plasmopara viticola = assay: Prophylactic leaf treatment of grapevines in the hothouse against Plasmopara viticola; assay type: in vivo
Procedure: Effects of prophylactic leaf treatment of grapevines in the hothouse against Plasmopara viticola
Young grapevine plants having from 5 to 8 leaves were sprayed dripping wet with the concentrations of active agents stated in the table below. After drying of the spray deposit the leaves were sprayed with an aqueous suspension of sporangia of the fungus (about 20,000 per ml); the spraying was applied to the bottom side of the leaves. The plants were then immediately incubated in a hothouse at a temperature of 22° to 24° C. and at maximum water saturation in the atmosphere. Beginning with the second day the humidity of the air was reduced for 3 to 4 days to normal level (30 to 70% saturation) and was then maintained for another day on the level of full saturation. Subsequently, the percentage portion of the fungus infested surface of each leaf was noted and the average per treatment was calculated in order to determine the fungicidal activity. This was done on the basis of the following formula: [formula]
The active compounds were applied in the form of a 20% concentration spray powder.

Helminthosporium gram = conditions: about 5 weeks
Procedure: Treatment of barley seeds infested with Helminthosporium gram
After emergence, the plants were subjected to illumination for 12 hours per day. After about 5 weeks the infested plants were counted and the total number of plants for each test were also counted. The active agents tested were used as pulverulent compositions.

Tilletia caries = assay: Treatment of oat seeds infested with Tilletia caries (spore germination); assay type: in vivo
Fusarium avenaceum = assay: Threshold concentration test in case of Fusarium avenaceum (infested soil, garden peas); assay type: in vivo; conditions: for number of sound peas: 20 grains per dish, 18 days at 20-24° C.; for root evaluation (1-4): 18 days
Procedure: Threshold concentration test in case of Fusarium avenaceum
A 20% pulverulent active agent of the type further identified in the table below was mixed in uniform manner with a soil which had been heavily infested with Fusarium avenaceum. The thus treated soil was then placed into clay dishes of a capacity of 0.5 l of earth. Each dish was seeded without any intervening time with 20 grains of garden peas (Pisum sativum L. convar. medullare Alef.) of the type "Wunder von Kelvedon". After a cultivation time of 18 days at 20° to 24° C. in a hot house the number of sound peas was determined and a root evaluation was carried out. The active agents employed, the amounts and results appear from the following table.
(§1) The root evaluation was carried out on a scale from 1 to 4 as follows: […]

Pythium ultimum = assay: Threshold concentration test for use of the compounds against Pythium ultimum (infested soil, garden peas); assay type: in vivo; design: key to root evaluation (1-4): 4: white roots without fungous necrosis; 3: white roots, minor fungous necrosis; 2: brown roots, already more pronounced fungous necrosis; 1: heavy fungous necrosis, roots rotted; conditions: for root evaluation (1-4): 3 weeks; for number of sound peas: 20 grains per dish, 3 weeks at 20-24° C.
Procedure: Threshold concentration test for use of the compounds against Pythium ultimum
A 20% concentration of certain pulverulent active agents as listed below were mixed in uniform manner into a soil which had been heavily infested by Pythium ultimum. The thus treated soil was then placed into clay dishes of a capacity of 0.5 l earth. Without any intermediate time lapse 20 grain of garden peas (Pisum sativum L. convar. medullare Alef.) of the type "Wunder von Kelvedon" were then seeded into each of the clay dishes. After a cultivation period of three weeks at 20° to 24° C. in a hothouse the number of sound peas was determined and a root evaluation was carried out. The active agents amounts and results appear from the following table.
as §1

[1] = concentration of active agent 0.025 (unit not given)
[2] = concentration of active agent 0.005 (unit not given)

SMILES | % activity (Plasmopara viticola; [1]) [%] | % activity (Helminthosporium gram; 10 g active agent per 100 kg) [%] | % activity (Helminthosporium gram; 20 g active agent per 100 kg) [%] | % activity (Helminthosporium gram; 50 g active agent per 100 kg) [%] | % activity (Tilletia caries; 20 g active agent per 100 kg) [%] | % activity (Tilletia caries; 50 g active agent per 100 kg) [%] | % activity (Plasmopara viticola; [2]) [%] | number of sound peas (Fusarium avenaceum; 25 mg/l soil) | root evaluation (1-4) (Fusarium avenaceum; 25 mg/l soil) | number of sound peas (Fusarium avenaceum; 50 mg/l soil) | root evaluation (1-4) (Fusarium avenaceum; 50 mg/l soil) | number of sound peas (Fusarium avenaceum; 100 mg/l soil) | root evaluation (1-4) (Fusarium avenaceum; 100 mg/l soil) | root evaluation (1-4) (Pythium ultimum; 20 mg/l soil) | number of sound peas (Pythium ultimum; 20 mg/l soil) | root evaluation (1-4) (Pythium ultimum; 40 mg/l soil) | number of sound peas (Pythium ultimum; 40 mg/l soil) | root evaluation (1-4) (Pythium ultimum; 80 mg/l soil) | number of sound peas (Pythium ultimum; 80 mg/l soil) | % activity (Plasmopara viticola; concentration of active agent 0.001 (unit not given)) [%]
COCCNC(=O)c1nnc([S+](C)[O-])s1 (stereo not shown) [5-methylsulfinyl-1,3,4-thiadiazole-2-carboxylic acid-(2-methoxyethyl)-amide] | 96 | 75 | 97 | 100 |  |  |  |  |  |  |  |  |  |  |  |  |  |  |  | 
CCCCS(=O)(=O)c1nnc(C#N)s1 [5-butylsulfonyl-1,3,4-thiadiazole-2-carbonitrile] | 93 |  |  |  | 95 | 100 | 91 | 18 | 4 | 20 | 4 | 20 | 4 |  |  |  |  |  |  | 
CCCCS(=O)(=O)c1nnc(C(N)=O)s1 [5-butylsulfonyl-1,3,4-thiadiazole-2-carboxamide] | 90 |  |  |  |  |  | 73 | 15 | 2 | 12 | 3 | 16 | 4 | 1 | 11 | 4 | 20 | 4 | 18 | 
C[S+]([O-])c1nnc(C(=O)NC2CC2)s1 (stereo not shown) [5-methylsulfinyl-1,3,4-thiadiazole-2-carboxylic acid-cyclopropylamide] | 90 | 72 | 98 | 99 | 98 | 100 | 80 |  |  |  |  |  |  | 1 | 15 | 4 | 20 | 4 | 20 | 
C[S+]([O-])c1nnc(C(=O)N2CCC2)s1 (stereo not shown) [5-methylsulfinyl-1,3,4-thiadiazole-2-carboxylic acid-N,N-trimethylenamide] | 94 |  | 95 | 100 | 96 | 100 | 93 |  |  |  |  |  |  | 2 | 12 | 4 | 16 | 4 | 19 | 86
CS(=O)(=O)c1nnc(C(=O)N2CCC2)s1 [5-methylsulfonyl-1,3,4-thiadiazole-2-carboxylic acid-N,N-trimethylenamide] | 90 |  |  |  | 99 | 100 | 84 |  |  |  |  |  |  | 4 | 19 | 4 | 20 | 4 | 20 | 
